From patent US20130072470A1 (ABBVIE INC., priority 2011, published 2013) come the findings set out here.

Bounds are passed on as bounds.

T1 sequence (P52333 811-1103): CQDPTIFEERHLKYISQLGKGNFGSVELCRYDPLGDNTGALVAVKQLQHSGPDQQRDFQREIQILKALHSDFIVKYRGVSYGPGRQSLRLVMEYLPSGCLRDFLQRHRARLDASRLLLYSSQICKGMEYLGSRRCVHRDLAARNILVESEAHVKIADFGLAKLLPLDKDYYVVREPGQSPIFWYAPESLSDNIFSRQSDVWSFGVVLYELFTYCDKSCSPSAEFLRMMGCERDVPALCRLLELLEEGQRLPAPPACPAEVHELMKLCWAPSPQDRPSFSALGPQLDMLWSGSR

One assay concerns the target T1, Jak3 enzyme (aa 811-1103) (Homo sapiens, UniProt P52333).
T1 construct: Jak3 enzyme (aa 811-1103); expressed in SF9 cells as a GST fusion; GST; made in house; host or cells: SF9 insect cells
Briefly: In vitro Jak3 kinase activity measured by time-resolved fluorescence resonance energy transfer (trFRET). It counts as biochemical. Conditions: ATP 0.001 mM. The procedure, abridged:
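GST-tagged Jak3 (aa 811-1103, Sf9-expressed; 3 nM) with 2 μM biotin-peptide substrate and 1 μM ATP in MOPSO pH 6.5 with Mg2+/Mn2+, about 60 min at rt. EDTA-quenched; Eu anti-phosphotyrosine/streptavidin-APC trFRET read at 665 nm; IC50 from signal in linear range.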
What is called IC50 is the point on the concentration scale where inhibition reaches its midpoint. The low end stands for greater potency in that assay, the high end for weaker potency in that assay. `C[C@@H]1C[C@@H](CCC#N)C[C@@H]1c1nnc2cnc3[nH]ccc3n12` [Example #10, 3-((1R,3R,4S)-3-methyl-4-(6H-pyrrolo[2,3-e][1,2,4]triazolo[4,3-a]pyrazin-1-yl)cyclopentyl)propanenitrile]: the IC50 lay in the range of 1 to 10 µM.

`Cc1cnc(C(=O)N[C@H]2C[C@@H](C)[C@@H](c3cnc4cnc5[nH]ccc5n34)C2)cn1` [Example #1, N-((1S,3S,4R)-3-(3H-imidazo[1,2-a]pyrrolo[2,3-e]pyrazin-8-yl)-4-methylcyclopentyl)-5-methylpyrazine-2-carboxamide] gave an IC50 of more than 10 µM.

The assay is the same for the next values; noted with them: ATP 0.001 mM, Table B.
`CC[C@@H]1C[C@H](NC(=O)c2oc3ccccc3c2C)C[C@@H]1c1nnc2cnc3[nH]ccc3n12` [compound 43, N-((1S,3R,4S)-3-ethyl-4-(6H-pyrrolo[2,3-e][1,2,4]triazolo[4,3-a]pyrazin-1-yl)cyclopentyl)-3-methylbenzofuran-2-carboxamide] displayed an IC50 of 1 to 10 µM. `CC[C@@H]1C[C@H](NC(=O)c2coc3c2C(=O)CCC3)C[C@@H]1c1nnc2cnc3[nH]ccc3n12` [compound 58, N-((1S,3R,4S)-3-ethyl-4-(6H-pyrrolo[2,3-e][1,2,4]triazolo[4,3-a]pyrazin-1-yl)cyclopentyl)-4-oxo-4,5,6,7-tetrahydrobenzofuran-3-carboxamide] returned an IC50 of 1 to 10 µM. On the same count and under the same terms, for `CC[C@@H]1C[C@H](NC(=O)c2noc3c2CCCC3)C[C@@H]1c1nnc2cnc3[nH]ccc3n12` [compound 72, N-((1S,3R,4S)-3-ethyl-4-(6H-pyrrolo[2,3-e][1,2,4]triazolo[4,3-a]pyrazin-1-yl)cyclopentyl)-4,5,6,7-tetrahydrobenzo[d]isoxazole-3-carboxamide] the value was 1 to 10 µM; for `CC[C@@H]1C[C@H](NC(=O)c2cc(OC)no2)C[C@@H]1c1nnc2cnc3[nH]ccc3n12` [compound 65, N-((1S,3R,4S)-3-ethyl-4-(6H-pyrrolo[2,3-e][1,2,4]triazolo[4,3-a]pyrazin-1-yl)cyclopentyl)-3-methoxyisoxazole-5-carboxamide], 1 to 10 µM; for `CC[C@@H]1C[C@H](NC(=O)/C=C/c2ccco2)C[C@@H]1c1nnc2cnc3[nH]ccc3n12` [compound 60, (E)-N-((1S,3R,4S)-3-ethyl-4-(6H-pyrrolo[2,3-e][1,2,4]triazolo[4,3-a]pyrazin-1-yl)cyclopentyl)-3-(furan-2-yl)acrylamide], 1 to 10 µM. Still for that read-out and setting: for `CC[C@@H]1C[C@H](NC(=O)c2c(C)oc3c2CCCC3)C[C@@H]1c1nnc2cnc3[nH]ccc3n12` [compound 35, N-((1S,3R,4S)-3-ethyl-4-(6H-pyrrolo[2,3-e][1,2,4]triazolo[4,3-a]pyrazin-1-yl)cyclopentyl)-2-methyl-4,5,6,7-tetrahydrobenzofuran-3-carboxamide] the value was 1 to 10 µM.
